Values quoted from earlier work in patent US12337056B2, “Topical compositions and methods” (MARY KAY INC., priority 2018, dated 2025).

Settings: HyaClear Solution Presentation, Tri-K Industries, 2016

Sodium hyaluronate
skin barrier function: improve skin barrier function
skin desquamation: reduce skin desquamation
skin lubricity: increase skin lubricity
skin moisturization: increase skin moisturization
skin roughness: reduce skin roughness
